Values after ≈ are worked out from the molar mass of the structure shown. Active and inactive are the calls of the source. The rule behind the calls is not given here.
These molecules were tested against T1, Enoyl-[acyl-carrier-protein] reductase [NADH] (Mycobacterium tuberculosis) (UniProt P9WGR1). Details: 20 uM.
T1 sequence (whole entry): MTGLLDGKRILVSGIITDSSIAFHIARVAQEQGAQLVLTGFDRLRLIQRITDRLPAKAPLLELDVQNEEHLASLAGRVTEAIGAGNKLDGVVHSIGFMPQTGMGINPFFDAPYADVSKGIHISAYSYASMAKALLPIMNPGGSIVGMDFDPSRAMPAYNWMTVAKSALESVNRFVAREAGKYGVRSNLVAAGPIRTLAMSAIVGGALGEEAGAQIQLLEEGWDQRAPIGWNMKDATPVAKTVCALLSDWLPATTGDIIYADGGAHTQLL

Row | SMILES | Activity
1 | O=C(Nc1nnc(CCc2ccccc2)s1)C1CC(=O)N(C2CCCCC2)C1 (configuration not stated) | inactive
2 | CCC(C)NC(=O)C1CC(=O)N(C2CCCCC2)C1 (configuration not stated) | inactive
3 | O=C(Nc1nnc(Cc2ccccc2)s1)C1CC(=O)N(C2CCCCC2)C1 (configuration not stated) | inactive
4 | O=C(C1CC(=O)N(C2CCCCC2)C1)N1CCOCC1 (configuration not stated) | inactive
5 | CCc1nnc(NC(=O)C2CC(=O)N(C3CCCCC3)C2)s1 (configuration not stated) | inactive
6 | O=C(NC1CCCC1)C1CC(=O)N(C2CCCCC2)C1 (configuration not stated) | inactive
7 | Cc1nnc(NC(=O)C2CC(=O)N(C3CCCCC3)C2)s1 (configuration not stated) | inactive
8 | N#Cc1c(NC(=O)C2CC(=O)N(C3CCCCC3)C2)sc2c1CCCC2 (configuration not stated) | inactive
9 | O=C(C1CC(=O)N(C2CCCCC2)C1)N1CCN(c2ccccc2)CC1 (configuration not stated) | inactive
10 | CN1CCN(C(=O)C2CC(=O)N(C3CCCCC3)C2)CC1 (configuration not stated) | inactive
11 | O=C(NC1CCCCC1)C1CC(=O)N(C2CCCCC2)C1 (configuration not stated) | inactive
12 | COCc1nnc(NC(=O)C2CC(=O)N(C3CCCCC3)C2)s1 (configuration not stated) | inactive

These molecules were tested on Mycobacterium tuberculosis (assay: Antibacterial activity against Mycobacterium tuberculosis H37Rv by alamar blue assay). Details: not given.
Assay type: functional

Row | SMILES | MIC [µM]
13 | O=C(Nc1cccc(OCc2ccccc2)c1)C1CC(=O)N(C2CCCCC2)C1 (configuration not stated) | 125 (≈ 49.1 µg/mL)
14 | O=C(Nc1cc(Br)cc(C(F)(F)F)c1)C1CC(=O)N(C2CCCCC2)C1 (configuration not stated) | 62.5 (≈ 27.1 µg/mL)
15 | CN(Cc1c2ccccc2cc2ccccc12)C(=O)C1CC(=O)N(C2CCCCC2)C1 (configuration not stated) | 125 (≈ 51.8 µg/mL)
16 | CN(Cc1c2ccccc2cc2ccccc12)C(=O)C1CC(=O)N(C2CC3CCC2C3)C1 (configuration not stated) | 125 (≈ 53.3 µg/mL)
17 | CN(Cc1c2ccccc2cc2ccccc12)C(=O)C1CC(=O)N(C2CCCCCCC2)C1 (configuration not stated) | 62.5 (≈ 27.7 µg/mL)
18 | CN(Cc1c2ccccc2cc2ccccc12)C(=O)C1CC(=O)N(C2CCCCCC2)C1 (configuration not stated) | 125 (≈ 53.6 µg/mL)

The molecules below were run against T2, Enoyl-[acyl-carrier-protein] reductase [NADH] (Mycobacterium tuberculosis, UniProt P9WGR1). Details: not given.
T2 sequence (P9WGR1 whole entry): T1 sequence (whole entry)

Row | SMILES | IC50 [nM]
19 | O=C(Nc1cccc(Br)c1)C1CC(=O)N(C2CCCCC2)C1 (configuration not stated) | 890
20 | O=C(Nc1cc(Cl)cc(Cl)c1)C1CC(=O)N(C2CCCCC2)C1 (stereo in doubt; d11a) | 8160
21 | O=C(Nc1cc(Br)cc(C(F)(F)F)c1)C1CC(=O)N(C2CCCCC2)C1 (configuration not stated) | 850
22 | O=C(Nc1cccc(-c2ccccc2)c1)C1CC(=O)N(C2CC3CCC2C3)C1 (configuration not stated) | 460
23 | O=C(Nc1cc(Cl)cc(Cl)c1)C1CC(=O)N(C2CCCCC2)C1 (stereo in doubt; d11) | 390
24 | CN(Cc1c2ccccc2cc2ccccc12)C(=O)C1CC(=O)N(C2CCCCC2)C1 (configuration not stated) | 750
25 | O=C(Nc1cc(Cl)cc(Cl)c1)C1CC(=O)N(C2CCCCC2)C1 (stereo in doubt; d11b) | 200
26 | O=C(Nc1cccc(-c2ccccc2)c1)C1CC(=O)N(C2CCCCC2)C1 (stereo in doubt; p24b) | 255
27 | O=C(Nc1cccc(Br)c1)C1CC(=O)N(c2ccccc2)C1 (configuration not stated) | 13500
28 | CN(Cc1c2ccccc2cc2ccccc12)C(=O)C1CC(=O)N(C2CC3CCC2C3)C1 (configuration not stated) | 850
29 | O=C(Nc1cccc(-c2ccccc2)c1)C1CC(=O)N(C2CCCCC2)C1 (stereo in doubt; p24) | 390
30 | Cc1ccc(Cl)cc1NC(=O)C1CC(=O)N(C2CCCCC2)C1 (configuration not stated) | 970
31 | O=C(Nc1cccc(-c2ccccc2)c1)C1CC(=O)N(C2CCCCC2)C1 (stereo in doubt; p24a) | 2100
32 | O=C(Nc1cccc(Cc2ccccc2)c1)C1CC(=O)N(C2CCCCC2)C1 (configuration not stated) | 410
33 | CN(Cc1c2ccccc2cc2ccccc12)C(=O)C1CC(=O)N(C2CCCCCCC2)C1 (configuration not stated) | 620
34 | O=C(Nc1cc(-c2ccccc2)c(O)c(-c2ccccc2)c1)C1CC(=O)N(C2CCCCCC2)C1 (configuration not stated) | 270
35 | CN(Cc1c2ccccc2cc2ccccc12)C(=O)C1CC(=O)N(C2CCCCCC2)C1 (configuration not stated) | 320

Each molecule was assayed against T1, Enoyl-[acyl-carrier-protein] reductase [NADH] (Mycobacterium tuberculosis). Details: 2.4 uM.
Description: Inhibition of Mycobacterium tuberculosis InhA at 2.4 uM

Row | SMILES | inhibition [%]
36 | O=C(Nc1cc(-c2ccccc2)c(O)c(-c2ccccc2)c1)C1CC(=O)N(C2CCCCC2)C1 (stereo in doubt; p64a) | 72.7

The molecules below were run against T1, Enoyl-[acyl-carrier-protein] reductase [NADH] (Mycobacterium tuberculosis). Details: not given.

Row | SMILES | Activity
37 | CS(=O)(=O)Nc1cccc(NC(=O)C2CC(=O)N(C3CCCCC3)C2)c1 (configuration not stated) | inactive
38 | O=C(Nc1cccc(O)c1)C1CC(=O)N(C2CCCCC2)C1 (configuration not stated) | inactive
39 | COc1cccc(NC(=O)C2CC(=O)N(C3CCCCC3)C2)c1 (configuration not stated) | inactive
40 | NC(=O)c1cccc(NC(=O)C2CC(=O)N(C3CCCCC3)C2)c1 (configuration not stated) | inactive
41 | CC(=O)c1cccc(NC(=O)C2CC(=O)N(C3CCCCC3)C2)c1 (configuration not stated) | inactive

Same assay, conditions: concentration not given here

Row | SMILES | inhibition [%]
42 | O=C(C1CC(=O)N(C2CCCCC2)C1)N1CCc2ccccc21 (configuration not stated) | 65

— ChEMBL document CHEMBL1137386, “Pyrrolidine carboxamides as a novel class of inhibitors of enoyl acyl carrier protein reductase from Mycobacterium tuberculosis” (J Med Chem, 2006)
